# Legend:
# Format in all cases: in vivo
# [1] = tested on: human colon cancer model SW620; assay: SW620 colon cancer xenograft in Crl:SHO-Prkdc^scidHr^hr mice; conditions: 30 mg/kg i.v. six times every second day, 31st day
# Experimental: (§1) Antitumor activity of protein preparations was tested in a mouse model of human colon cancer HCT116, human colon cancer Colo205, human colon cancer model SW620, human liver cancer model HepG2, and human lung cancer models NCI-H460 and NCI-H460-Luc2.
# The HCT116 (in mice Crl:SHO-Prkdc^scidHr^hr) were alternatively maintained in McCoy's medium (Hyclone, Logan, Utah, USA) supplemented with 10% fetal calf serum and 2 mM glutamine. On the day of mice grafting, the cells were detached from the support by washing the cells with trypsin (Invitrogen), then the cells were centrifuged at 1300 rpm, 4° C., 8 min., suspended in HBSS buffer (Hanks medium), counted and diluted to the concentration of 25×10^6 cells/ml. SW620 cells were maintained in DMEM (HyClone, Logan, Utah, USA) supplemented with 10% fetal calf serum and 2 mM glutamine. On the day of mice grafting, the cells were detached from the support by washing the cells with trypsin (Invitrogen), then the cells were centrifuged at 1300 rpm, 4° C., 8 min., suspended in HBSS buffer (Hanks medium), counted and diluted to the concentration of 25×10^6 cells/ml.
# Examination of antitumor activity of proteins of the invention was conducted on 7-9 week-old CD-nude (Crl:CD1-Foxn1^nu 1) or 4-6 week-old Crl:SHO-Prkdc^scidHr^hr mice obtained from Charles River Germany. […]
# [2] = tested on: human lung cancer NCI-H460-Luc2; assay: NCI-H460-Luc2 lung cancer xenograft in Crl:CD1-Foxn1nu 1 mice; conditions: NCI-H460-Luc2, Crl:CD1-Foxn1nu 1 mice, 10 mg/kg i.v. six times every second day, 30th day
# Experimental: as §1
# (§2) The HCT116 (in mice Crl:CD1-Foxn1^nu 1), Colo205, NCI-H460, NCI-H460-Luc2 cells were maintained in RPMI 1640 medium (Hyclone, Logan, Utah, USA) mixed in the ratio of 1:1 with Opti-MEM (Invitrogen, Cat.22600-134) supplemented with 10% fetal calf serum and 2 mM glutamine. On the day of mice grafting, the cells were detached from the support by washing the cells with trypsin (Invitrogen), then the cells were centrifuged at 1300 rpm, 4° C., 8 min., suspended in HBSS buffer (Hanks medium), counted and diluted to the concentration of 25×10^6 cells/ml.
# (§3) Examination of antitumor activity of proteins of the invention was conducted on 7-9 week-old CD-nude (Crl:CD1-Foxn1^nu 1) or 4-6 week-old Crl:SHO-Prkdc^scidHr^hr mice obtained from Charles River Germany. Mice were kept under specific pathogen-free conditions with free access to food and demineralised water (ad libitum). All experiments on animals were carried in accordance with the guidelines: “Interdisciplinary Principles and Guidelines for the Use of Animals in Research. […]
# [3] = tested on: human colon cancer Colo205; assay: Colo205 colon cancer xenograft in Crl:SHO-Prkdc^scidHr^hr mice; conditions: 30 mg/kg i.v. six times every second day, 33rd day
# Experimental: as §1, §2, §3
substance,measurement,setting,value
"rhTRAIL114-281: recombinant human soluble TRAIL, amino acids 114-281 of hTRAIL, used as the comparative reference",tumor growth inhibition (TGI) relative to the control,[1],−9%
same,tumor growth inhibition (TGI) relative to the control,[2],53.1%
same,tumor growth inhibition (TGI) relative to the control,[3],18.8%
